In patent EP2229935A1, “Peptide derivatives or pharmaceutically acceptable salts thereof, method for producing the same, use of said derivatives and pharmaceutical composition” (Nebolsin, Vladimir Evgenievich, priority 1997, dated 1999):
Where “and” joins values, the source holds several entries; their conditions need not be identical. Equal values may be shown once. Read-outs that look alike come from different tables or passages of the source. Marks after values point to notes of the source that are not given here.

Key:
[1] = test system: white mongrel male rats; experiment: Paw edema induced by Freund's complete adjuvant; assay type: in vivo
Description: Experiment was carried out on white mongrel male rats weghing 280-300 g. The model of paw edema induced by Freund's complete adjuvant (FCA), was reproduced according to the method of Ezamuzie and Umezurike [Ezamuzie Ch., Umezurike C.C. Effect of histamine H2-receptor antagonists on acute inflammatory of the rat paw oedema. J. Pharmacol. (1989), Vol. 41, pp. 261-265]. Paw volume measurement was done using a plethysmograph (Ugo Basile). Inhibition of inflammatory reaction expressed in percent, as calculated according to the formula: 100-[(R-L(exper.))/(L):(R-L(control))/(L)x100](%) [formula] where R - the right paw volume, L - the left paw volume.
Each group included 10 animals.
Group of animals: • Group 1 - control, animals were administered 0.5 ml of 1% starch solution. • Group 2 - animals were administered the compound XLVIII. • Group 3 - animals were administered the compound III. • Group 4 - animals were administered Naproxene.

[2] = test system: white mongrel male rats; experiment: Carrageenan paw edema, oral administration (series I); assay type: in vivo
Description: (§1) Experiment was carried out on white mongrel male rats weighing 280-300 g. Carrageenan-induced edema was caused according to the method of Winter et al. [[inter et al. In: De Rosa M., Giroud J.P., Willoughby D.A. Studies of the mediators of the acute inflammatory reponse induced in rats in different sites by carrageenan and turpentine. […] Paw volume measurement was done using a plethysmograph (Ugo Basile) 1, 3 and 4 hours after carrageenan administration. Inhibition of inflammatory reaction expressed in percent, was calculated according to the formula: 100-[(R-L(exper.))/(L):(R-L(control))/(L)x100](%) [formula] where R - the right paw volume, L - the left paw volume.
Series I of experiment. […] The reference drug Naproxene was once administered at a dose 20 µg/kg 1 hour before edema induction. Each group included 10 animals.

[3] = test system: mongrel rats; experiment: Antiischemic activity: necrosis zone after coronary artery occlusion (myocardial infarction); assay type: in vivo; settings: 4 hours after coronary artery occlusion, oral 4 days
Description: Antiischemic activity of a compound was assessed by an integral test, i.e. effect on the necrosis zone area following reproduction of myocardial infarction in mongrel rats weighing 250-300 g.
Effect of a compound on the necrosis zone area was studied in 4 hours after arterial occlusion in rats using a differential indicator method [Sernov L.N., Gatsura V.V. A differential indicator method for determinig ischemic and necrotic zone in experimental myocardial infarction in rats. Bulletin of Experimental Biology and Medicine (1989), No 5, pp. 534-535]. All the painful manipulations were performed on animals under Ethaminal anesthesia (Ethaminal - 40 mg/kg intraperitoneally). Experiment was carried out in 15 hours after the last compound administration. Each group included 8 animals.
Groups of animals: • Group 1 - intact control -administration of normal saline four times. • Groups 2 and 3 - oral administration of the compound III at doses respectively 50 and 500 µg/kg for 4 days. • Group 4 - single intraperitoneal administration of Nicorandil at a dose 1 mg/kg immediately after occlusion.

[4] = test system: Lewis pulmonary carcinoma (LLC); experiment: LLC metastasizing with surgical resection of the primary tumor node, alone and with Cyclophosphane; assay type: in vivo, C57BL/6 female mice; settings: day 29
Description: An important property of the compounds is their ability to manifest pharmacological activity on the model with resection of the primary tumor node and not to lower therapeutic efficacy of respective antitumor drugs. […] Surgical resection of the primary tumor node was performed by day 13 following tumor transplantation. The test anitumor compounds were administered according to two dosage regimens:
Dosage regimen 1 - animals were administered compound III from day 1 till day 13 of experiment at a dose 500 µg/kg (group 1); Cyclophosphane was administered intraperitoneally two times before operation with 96 hour interval at a dose 100 µg/kg (group 2); combined administration of compound III and Cyclophosphane was similar to administration of substances in groups 1 and 2 (group 3). Number of metastases was calculated by day 29 of experiment;
Dosage regimen 2 - animals were administered compound III from day 14 of experiment (commencement of administration 24 hours post operation) till day 28 (group 4); Cyclophosphane was administered twice post operation with 96 hour interval at a dose 100 µg/kg (group 5); combined administration of compound III and Cyclophosphane similar to administration of substances in groups 4 and 5 (group 6). Antimetastatic efficacy of the drugs was considered by day 29 of experiment.

[5] = test system: white mongrel male rats; experiment: Carrageenan paw edema, cutaneous gel application (series 2); assay type: in vivo
Description: as §1
Series 2 of experiment. 2% carrageenan solution was injected sublaterally into paws of rats. In 1 minute 0.1 ml of gel comprising the test compounds were applied on the right paw. Gel base consisted of propylene glycol dissolved in the mixture of water and ethanol. Concentration of the compounds in the gel was 1%. Volume of paws was measured 4 hours after carrageenan administration.

[6] = test system: Wistar rats; experiment: Non-infectious pulmonary granulomatosis model (aerosol Sephadex A-25); settings: intragastral 50 mg/kg once daily
Description: Antiinflammatory and immunomodulating effect of the compound III with intragastral administration was studied on the non-infectious pulmonary granulomatosis model.
20 female 4 months old Wistar rats weighing 200-220 g were used in exepriment.
Sephadex A-25 at a dose 5 mg per 1 kg of body mass, as administered to rats under ether anesthesia using an original dosing device for inhalation administering dry powders manufactured at the Scientific-Research Institute for Medical Instrument-Making. […] Compound III was administered intragastrally using a gastric probe at a dose 50 mg per 1 kg of body mass and immediately after that, single aerosol administration of Sephadex A-25 was performed according to the earlier described technique. Then compound III was administered intragastrally once daily for 6 days at a dose 50 mg/kg of body mass in the form of water solution. Rats were examined by day 7 after commencement of administering compound III and Sephadex A-25.
Bronchoalveolar lavage was obtained under Hexenal anesthesia. Cytosis, i.e. absolute number of cells in 1 ml was determined in the bronchoalveolar lavage fluid. Endopulmonal cytogram (in percent) was calculated in the smears stained according to Romanovsky-Gimza. […] Histological examination of lungs stained with hematoxylin and eosine was performed. Volume density of alveolitis and emphysema was determined using the point count method.

[7] = test system: peripheral blood neutrophils; experiment: Activity of peripheral blood neutrophils in mice with LLC; assay type: in vivo, C57BL/6 female mice; settings: compound III 500.0 µg/kg for 10 days
Description: Experiments were carried out on C57BL/6 female mice with intramuscularly transplanted LLC carcinoma. Activity of neutrophils was measured by days 11 and 14.
• control - animals with LLC tumor, 10 animals; • animals with LLC tumor + compound III at a dose 500.0 µg/kg for 10 days. 8 animals; • animals with LLC tumor + Cyclophosphane 5 times at a dose 20.0 mg/kg (in 48 hours) for 10 days, 8 animals; • compound III and Cyclophosphane according to the above dosage regimen, 8 animals.
Experiment duration was 14 days.

[8] = test system: Strain Aichi of type A human influenza virus; assay type: in vivo; settings: for Survival rate in percent: series with Control - 2 (34.5); for Protection degree in percent: series with Control - 2
[9] = intragastral four times 50 µg/kg
[10] = regimen 1, prior to operation: day 1 till day 13, 500 µg/kg
[11] = regimen 2, post operation: day 14 till day 28
[12] = Wistar rats, day 7 after aerosol Sephadex A-25

O=C(O)CCCC(=O)NCCc1c[nH]cn1 [compound III, N-GLUTARYLHISTAMINE]
Volume of paws (conditional units) Right [1]: 1.85 ± 0.62 conditional units | Volume of paws (conditional units) left [1]: 1.25 ± 0.34 conditional units | Inflammation inhibition (%) [2, 9]: 30% | Volume increment [2, 9]: 0.49 ± 0.07 | Volume of paws (conditional units) left [2, 9]: 1.23 ± 0.41 conditional units | Volume of paws (conditional units) Right ([2]; intragastral four times 50 µg/kg 72, 48, 24 and 1 hour before): 1.72 ± 0.27 conditional units | Ischemia zone, percent to the total myocardial mass ([3]; 50 µg/kg): 27,2 ± 2,8% | Necrosis zone percent to myocardial zone ([3]; 50 µg/kg): 56,8 ± 2,7% | Necrosis zone, percent to the total myocardial mass ([3]; 50 µg/kg): 15,4 ± 1,7% | Ischemia zone, percent to the total myocardial mass ([3]; 500 µg/kg): 31,1 ± 3,1% | Necrosis zone percent to myocardial zone ([3]; 500 µg/kg): 54,3 ± 2,1% | Necrosis zone, percent to the total myocardial mass ([3]; 500 µg/kg): 17,8 ± 1,0% | Mean number of metastases [4, 10]: 32.0 ± 11.8 | Metastasizing inhibition percent [4, 10]: 8.0% | Metastasizing rate (%) [4, 10]: 100% | Mean number of metastases [4, 11]: 28.6 ± 8.5 | Metastasizing inhibition percent [4, 11]: 22.9% | Metastasizing rate (%) [4, 11]: 100% | Volume of paws (conditional units) Right ([5]; 0.1 ml of 1% gel on right paw, 4 hours after carrageenan): 2.13 ± 0.64 conditional units | Volume of paws (conditional units) left ([5]; 1% gel group, left paw, 4 hours): 1.83 ± 0.21 conditional units | Inflammation inhibition (%) ([5]; 1% gel, 4 hours): 60% | Volume increment ([5]; 1% gel, 4 hours): 0.30 ±0.06*^l | Volume density in percent: Alveolitis [6, 12]: 3.8±0.1% and 3.8 ± 1.0% | Volume density in percent: Emphysema [6, 12]: 11.2±3.2% | Cytosis (absolute number of cells in 1 ml) ([6]; bronchoalveolar lavage, day 7): 0.169 ± 0.054 | Endopulmonary cytogram in percent: Lymphocytes ([6]; bronchoalveolar lavage, day 7): 7.6 ± 1.5% | Endopulmonary cytogram in percent: Macrophages ([6]; bronchoalveolar lavage, day 7): 75.2 ± 4.5% | Endopulmonary cytogram in percent: Neutrophils ([6]; bronchoalveolar lavage, day 7): 16.8 ± 2.6% | Volume density of lymphoid follicles in percent ([6]; lymphoid tissue associated with bronchi, day 7): 34.7 ± 10.3% | Percent of active neutrophils ([7]; Background): 20.1 ± 2.7% | Percent of active neutrophils ([7]; day 11): 9.3 ± 1.7% | Percent of active neutrophils ([7]; day 14): 15.3 ± 4.3% | MLT ([8]; series with Control - 2 (9.1), 50 µg/kg orally, 3 days before and 10 days following infection): 10.1 days | MLT, days ([8]; series with Control - 2 (9.1), 500 µg/kg orally, 3 days before and 10 days following infection): 11.5*^2 days | Survival rate in percent ([8]; 50 µg/kg orally): 86.6*^2% | Survival rate in percent ([8]; 500 µg/kg orally): 76.6*^2% | Protection degree in percent ([8]; 50 µg/kg orally): 52.1% | Protection degree in percent ([8]; 500 µg/kg orally): 42.2%
